Test results published in US20150175599A1, “FAAH Inhibitors” (Ironwood Pharmaceuticals, Inc., priority 2010, published 2015).

Tests used:
FAAH = biological target: T1, FAAH (Homo sapiens, UniProt O00519); experiment: FAAH inhibition, human brain membrane homogenate assay; format: biochemical; conditions: human brain homogenate; average activity; read-out: Human brain Extract FAAH IC50
T1 construct: Reactions were initiated by adding 12.5 μg of brain microsome; tissue ABS, Inc; host or cells: human brain cerebral cortex, membrane/microsome fraction pooled from 3 donors
T1 sequence (O00519 1-579): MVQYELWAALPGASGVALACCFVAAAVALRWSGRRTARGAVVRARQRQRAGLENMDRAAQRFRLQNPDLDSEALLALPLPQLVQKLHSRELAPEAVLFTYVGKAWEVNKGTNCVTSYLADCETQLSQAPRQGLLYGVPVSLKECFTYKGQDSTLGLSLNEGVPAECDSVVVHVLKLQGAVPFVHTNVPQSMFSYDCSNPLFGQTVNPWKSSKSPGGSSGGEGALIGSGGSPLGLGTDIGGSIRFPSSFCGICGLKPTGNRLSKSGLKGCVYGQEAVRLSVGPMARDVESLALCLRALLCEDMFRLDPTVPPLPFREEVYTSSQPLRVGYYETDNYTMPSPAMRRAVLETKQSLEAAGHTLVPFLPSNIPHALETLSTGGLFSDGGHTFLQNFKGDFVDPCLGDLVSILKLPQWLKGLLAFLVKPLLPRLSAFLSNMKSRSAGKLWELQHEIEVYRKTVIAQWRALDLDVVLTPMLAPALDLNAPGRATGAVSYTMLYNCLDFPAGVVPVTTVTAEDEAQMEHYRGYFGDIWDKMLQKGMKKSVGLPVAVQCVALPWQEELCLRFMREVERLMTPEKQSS

human FAAH-1 = biological target: T2, human FAAH-1 (Homo sapiens, UniProt O00519); experiment: Whole cell anandamide hydrolysis assay (HeLa clone 5c5 transfected with human FAAH-1); format: cell-based; conditions: HeLa clone 5c5 expressing human FAAH-1; read-out: human FAAH whole cell IC50
T2 sequence (O00519 1-579): T1 sequence (O00519 1-579)
Experimental: FAAH activity was assayed in whole cells using methods disclosed previously (Maccarone et al., 1998 J Biol. Chem. 273:32332 and Bisogno et al., 1997 J Biol. Chem. 272:3315). In addition to the cell lines described in Maccarone et al. and Bisogno et al., MCF7 (ATCC designation HTB-22) and T84 (ATCC designation CCL-248) cell lines were also used in these assays.
cDNA expression clone for human FAAH-1 (in pcDNA3 vector) (Genbank Accession U82535; obtained from Benjamin Cravatt, Scripps Research Institute, La Jolla, Calif.) was linearized by digestion with BglII (New England Biolabs) and transfected by calcium phosphate into human HeLa cells (ATCC catalog #CCL-2). […] Following transfection, a stable HeLa-derived clone, designated 5c5, was isolated by single colony purification and expanded and maintained in modified Eagles medium (MEM; VWR catalog #45000-300) containing 10% fetal bovine serum (FBS), 2 mM L-glutamine, and 0.5 mg/mL G-418 (Sigma catalog #G5013).
Clone 5c5 (50,000 cells in 150 μL) was seeded into 96-well plates and incubated overnight (5% CO2, 37° C.). Media was carefully replaced with 180 μL DMEM/F12 medium (VWR catalog #45000-350) containing 15 mM HEPES, pH 7.4 and 0.1% fatty acid free BSA (Sigma catalog #A0281). Then, 2 μL of 100× desired final concentrations of certain exemplary compounds described herein were made up in DMSO, added to wells containing cells, and plates were incubated at 37° C. for 10 min. Next, 20 μL of 5 μM anandamide (Cayman catalog #90050) spiked with 8 μCi of anandamide-(ethanolamine-1-[^3H]) (American Radiolabeled Chemicals, Inc., catalog #ART 626) was added to the cells and the plates were incubated for an additional 15 min at 37° C. The reactions were terminated by chilling the plates on ice and adding 20 μL of 0.5M of potassium phosphate buffer (adjusted to pH 2.1 with phosphoric acid).
The acidified reactions were transferred to 96-well filter plates (0.25 mL capacity/well, 1.2 micron glass fiber pre-filter packed above 0.65 micron pore-size PVDF membrane, Millipore catalog MSFCN6B50) containing 25 μL charcoal (neutral activated carbon, Fisher Scientific catalog C170-500) per well. Prior to the assay, charcoal was measured and loaded onto the plate using an aluminum 96-well column loading device (Millipore catalog MACL09625). The filter plate was assembled over an empty 96-well plate (Costar) using a centrifuge alignment frame (Millipore catalog MACF09604) to allow for collection of the filtrate in the receiver plate. The charcoal glass-fiber filter plates were pre-washed with methanol by centrifugation 650×g for 10 min). Next, 80 μL of water was added to the wells of the pre-washed 96 well charcoal filter plate. Then, 90 μL of the acidified reaction mixture was added to the water in the wells of the charcoal plate. The samples were centrifuged as above. The substrate remained bound to the charcoal, whereas the [^3H]-ethanolamine product formed flowed through and was transferred to the microplates containing scintillation cocktail and quantified in a micro-plate scintillation counter (Perkin-Elmer Microbeta). Control reactions with either no cells or cells treated with DMSO alone were performed in triplicate and used to define background (no cells) and 100% activity (DMSO alone).
Following subtraction of background radioactivity, data were expressed as percent inhibition relative to 100% activity and fit with a nonlinear regression curve using GraphPad Prism Software (GraphPad Software Inc). IC50 values were calculated from the resulting dose-response curves constrained at top and bottom to 100% and 0%, respectively.

COc1ccc2c(c1)c(C(=O)C(=O)Nc1ccnc(OC)c1)c(C)n2Cc1ccccn1 [Compound 77, 2-(5-methoxy-2-methyl-1-(pyridin-2-ylmethyl)-1H-indol-3-yl)-N-(2-methoxypyridin-4-yl)-2-oxoacetamide]
IC50 (FAAH): 100 to 1000 nM | IC50 (human FAAH-1): < 100 nM

COc1cc(NC(=O)C(=O)c2c(C)n(Cc3ccc(Cl)cn3)c3ccc([N+](=O)[O-])cc23)ccn1 [Compound 62, 2-(1-((5-chloropyridin-2-yl)methyl)-2-methyl-5-nitro-1H-indol-3-yl)-N-(2-methoxypyridin-4-yl)-2-oxoacetamide]
IC50 (FAAH): < 100 nM | IC50 (human FAAH-1): < 100 nM

COc1cc(NC(=O)C(=O)c2c(C)n(Cc3ccc(Cl)cc3)c3cnccc23)ccn1 [Compound 35, 2-(1-(4-chlorobenzyl)-2-methyl-1H-pyrrolo[2,3-c]pyridin-3-yl)-N-(2-methoxypyridin-4-yl)-2-oxoacetamide]
IC50 (FAAH): 100 to 1000 nM | IC50 (human FAAH-1): < 100 nM

COc1cc(NC(=O)C(=O)c2c(C)n(Cc3ncc(Cl)cc3Cl)c3ccc(C)cc23)ccn1 [Compound 30, 2-(1-((3,5-dichloropyridin-2-yl)methyl)-2,5-dimethyl-1H-indol-3-yl)-N-(2-methoxypyridin-4-yl)-2-oxoacetamide]
IC50 (FAAH): < 100 nM | IC50 (human FAAH-1): < 100 nM

COc1cc(NC(=O)C(=O)c2c(C)n(Cc3ccc(Cl)cc3)c3ccc(C#N)cc23)ccn1 [Compound 15, 2-(1-(4-chlorobenzyl)-5-cyano-2-methyl-1H-indol-3-yl)-N-(2-methoxypyridin-4-yl)-2-oxoacetamide]
IC50 (FAAH): < 100 nM | IC50 (human FAAH-1): < 100 nM

COc1cc(NC(=O)C(=O)c2c(C)n(Cc3ccc(Cl)cc3)c3ccc(N)cc23)ccn1 [Compound 20, 2-(5-amino-1-(4-chlorobenzyl)-2-methyl-1H-indol-3-yl)-N-(2-methoxypyridin-4-yl)-2-oxoacetamide]
IC50 (FAAH): < 100 nM | IC50 (human FAAH-1): < 100 nM

COc1cc(NC(=O)C(=O)c2c(C)n(Cc3ncc(Cl)cc3Cl)c3cc(Cl)c(OC)cc23)ccn1 [Compound 70, 2-(6-chloro-1-((3,5-dichloropyridin-2-yl)methyl)-5-methoxy-2-methyl-1H-indol-3-yl)-N-(2-methoxypyridin-4-yl)-2-oxoacetamide]
IC50 (FAAH): < 100 nM | IC50 (human FAAH-1): < 100 nM

COc1cc(NC(=O)C(=O)c2c(C)n(Cc3ccc(Cl)cn3)c3cc(Cl)c(OC)cc23)ccn1 [Compound 60, 2-(6-chloro-1-((5-chloropyridin-2-yl)methyl)-5-methoxy-2-methyl-1H-indol-3-yl)-N-(2-methoxypyridin-4-yl)-2-oxoacetamide]
IC50 (FAAH): < 100 nM | IC50 (human FAAH-1): < 100 nM

COc1cc(NC(=O)C(=O)c2c(C)n(Cc3ccc(Cl)cc3)c3ccc(OC(F)(F)F)cc23)ccn1 [Compound 23, 2-(1-(4-chlorobenzyl)-2-methyl-5-(trifluoromethoxy)-1H-indol-3-yl)-N-(2-methoxypyridin-4-yl)-2-oxoacetamide]
IC50 (FAAH): < 100 nM | IC50 (human FAAH-1): < 100 nM

COc1cc(NC(=O)C(=O)c2c(C)n(Cc3ccc(Cl)cc3)c3ncc(C)cc23)ccn1 [Compound 76, 2-(1-(4-chlorobenzyl)-2,5-dimethyl-1H-pyrrolo[2,3-b]pyridin-3-yl)-N-(2-methoxypyridin-4-yl)-2-oxoacetamide]
IC50 (FAAH): < 100 nM | IC50 (human FAAH-1): < 100 nM

COc1cc(NC(=O)C(=O)c2c(C)n(Cc3ccc(Cl)cn3)c3ccccc23)ccn1 [Compound 68, 2-(1-((5-chloropyridin-2-yl)methyl)-2-methyl-1H-indol-3-yl)-N-(2-methoxypyridin-4-yl)-2-oxoacetamide]
IC50 (FAAH): < 100 nM | IC50 (human FAAH-1): < 100 nM

COc1ccc2c(c1)c(C(=O)C(=O)Nc1ccnc(OC)c1F)c(C)n2Cc1ccc(Cl)cc1 [Compound 53, 2-(1-(4-chlorobenzyl)-5-methoxy-2-methyl-1H-indol-3-yl)-N-(3-fluoro-2-methoxypyridin-4-yl)-2-oxoacetamide]
IC50 (FAAH): 100 to 1000 nM | IC50 (human FAAH-1): < 100 nM

COc1ccc(Cn2c(C)c(C(=O)C(=O)Nc3ccnc(OC)c3)c3cc(C)ccc32)nc1 [Compound 69, 2-(1-((5-methoxypyridin-2-yl)methyl)-2,5-dimethyl-1H-indol-3-yl)-N-(2-methoxypyridin-4-yl)-2-oxoacetamide]
IC50 (FAAH): < 100 nM | IC50 (human FAAH-1): < 100 nM

COc1ccc(Cn2c(C)c(C(=O)C(=O)Nc3ccnc(OC)c3)c3cc(OC)ccc32)nc1 [Compound 43, 2-(5-methoxy-1-((5-methoxypyridin-2-yl)methyl)-2-methyl-1H-indol-3-yl)-N-(2-methoxypyridin-4-yl)-2-oxoacetamide]
IC50 (FAAH): 100 to 1000 nM | IC50 (human FAAH-1): < 100 nM

COc1cc(NC(=O)C(=O)c2c(C)n(Cc3ncc(Cl)cc3Cl)c3cc(F)c(OC)cc23)ccn1 [Compound 13, 2-(1-((3,5-dichloropyridin-2-yl)methyl)-6-fluoro-5-methoxy-2-methyl-1H-indol-3-yl)-N-(2-methoxypyridin-4-yl)-2-oxoacetamide]
IC50 (FAAH): < 100 nM | IC50 (human FAAH-1): < 100 nM

COc1cc(NC(=O)C(=O)c2c(C)n(Cc3ccc(Cl)cc3)c3ccc(C(F)(F)F)cc23)ccn1 [Compound 21, 2-(1-(4-chlorobenzyl)-2-methyl-5-(trifluoromethyl)-1H-indol-3-yl)-N-(2-methoxypyridin-4-yl)-2-oxoacetamide]
IC50 (FAAH): < 100 nM | IC50 (human FAAH-1): < 100 nM

COc1cc(NC(=O)C(=O)c2c(C)n(Cc3ccc(Cl)cc3)c3cc(Cl)c(OC)cc23)ccn1 [Compound 55, 2-(6-chloro-1-(4-chlorobenzyl)-5-methoxy-2-methyl-1H-indol-3-yl)-N-(2-methoxypyridin-4-yl)-2-oxoacetamide]
IC50 (FAAH): < 100 nM | IC50 (human FAAH-1): < 100 nM

COc1cc(NC(=O)C(=O)c2c(C)n(Cc3ccc(Cl)cc3)c3ccc(OC)nc23)ccn1 [Compound 36, 2-(1-(4-chlorobenzyl)-5-methoxy-2-methyl-1H-pyrrolo[3,2-b]pyridin-3-yl)-N-(2-methoxypyridin-4-yl)-2-oxoacetamide]
IC50 (FAAH): < 100 nM | IC50 (human FAAH-1): < 100 nM

COc1cc(NC(=O)C(=O)c2c(C)n(Cc3ccc(Cl)cc3)c3ccncc23)ccn1 [Compound 37, 2-(1-(4-chlorobenzyl)-2-methyl-1H-pyrrolo[3,2-c]pyridin-3-yl)-N-(2-methoxypyridin-4-yl)-2-oxoacetamide]
IC50 (FAAH): < 100 nM | IC50 (human FAAH-1): < 100 nM

COc1cc(NC(=O)C(=O)c2c(C)n(Cc3ccc(Cl)cc3)c3ccc(C(C)=O)cc23)ccn1 [Compound 5, 2-(5-acetyl-1-(4-chlorobenzyl)-2-methyl-1H-indol-3-yl)-N-(2-methoxypyridin-4-yl)-2-oxoacetamide]
IC50 (FAAH): < 100 nM | IC50 (human FAAH-1): < 100 nM
